# Test results as given in patent US12728120B2, “Prevention or treatment of brain disease and adverse effects of cholinesterase inhibitors” (DR. NOAH BIOTECH INC., priority 2021, dated 2026).
# Where a name gives a salt, the structure may show the parent alone.
# Legend:
# [1] = system: neuronal cells (SH-SY5Y); assay: ROS production (DCF-DA) in H2O2-treated SH-SY5Y cells; format: cell-based; conditions: 100 μM H2O2 24 hours, DONE alone 5 uM, NAC alone 5 uM, NDC = DONE 2.5 uM + NAC 2.5 uM, FIG. 3
# Protocol: SH-SY5Y cells were plated in 96 well plates at 2×10^5 cells/well in DMEM supplemented with 10% fetal bovine serum (FBS; YOUNG IN, US-FBS-500) and 1% penicillin-streptomycin (P-S; Gibco, 15070063). Six hours after seeding, SH-SY5Y cells were treated with 100 μM H2O2 for 24 hours (Sigma, #323381) followed by incubation with DONE alone, NAC alone, and combination of DONE and NAC. After incubation, ROS activity in the cell was measured by adding DCF-DA (Thermo, #D399) containing media. Absorbance was measured using a Synergy HTX Multi-Mode reader (Biotek) with 465 nm excitation and 540 nm emission. Measured fluorescence was normalized to control as follows: (drug-treated group OD−DCF-DA alone O.D)/(control O.D−DCF alone O.D)*100.
# [2] = system: PSD-95; assay: PSD-95 expression (western blot) in primary cultured neurons; format: cell-based, mice; conditions: mouse primary neuro-glia culture, 4 days treatment, β-actin normalized; FIG. 14B
# Protocol: (§1) To evaluate the synaptic plasticity, primary neuro-glia culture was prepared from cortices of embryonic day 16 C57/BL6 mice. Cells were collected by mechanical dissection and chemical dissociation with trypsin and DNase treatment and cultured in Neurobasal (NB) and MEM media supplemented with 1% B-27, 2 mM L-glutamine, 5% Fetal Bovine Serum, 5% Horse Serum, 1×MEM-NEAA (non-essential amino acids), and 1% Penicillin-Streptomycin (PS). Cells were cultured in Poly-D-Lysine+Laminin-coated 6-well plates at 2×10^6 cells/well in growth media. After 3 days in vitro (DIV 3), media was changed to NB media supplemented with 2% B-27, 2 mM L-glutamine, and 1% PS. […] Protein was resolved by 8% SDS-PAGE electrophoresis, transferred to polyvinylidene difluoride membranes and blocked with 5% non-fat dry milk for 1 hour at RT. Membrane was immunoblotted using following antibodies; primary antibody: PSD-95 (Abcam, ab18258, 1:2,000), phospho-CREB (Millipore, #06-519, 1:2,000), β-actin (Cell signaling, #3700, 1:3,000), and secondary antibody:HRP-conjugated anti-mouse IgG (AbFrontier, LF-SA8001, 1:5,000), HRP-conjugated anti-rabbit IgG (AbFrontier, LF-SA8002, 1:5,000). Signal was visualized by chemiluminescence methods using ECL solution and imaged using ImageQuant LAS 500 system. […]
# [3] = system: cerebral infarction-reperfusion model in Sprague-Dawley rats; assay: Rotarod test in MCAO-reperfusion stroke model; format: in vivo; conditions: for Rotarod score (fall latency normalized to day 1), mean value: I.V. daily, FIG. 15
# Protocol: The Rotarod test was performed on the 1, 3, 7, 14, and 21 days after 45 minutes-MCAO (middle cerebral artery occlusion)-reperfusion modelling to induced ischemia (Brain Stroke). […] The animal was carefully placed on a rotating rod (JD-A-07RA5, BS Technolab Inc., Korea) and the time (second) that animal was fallen was measured. The speed of rotating rod was increased from 4 rpm to 40 rpm for 300 second. […] For rotarod latency test, Nested one-way ANOVA and Two-way ANOVA was used to analyze significance between the groups on each day. Statistical analysis was performed using Prism 9 (GraphPad Software Inc., San Diego, CA, USA) and statistical significance was set at a P-value of less than 0.05.
# [4] = system: pCREB; assay: pCREB expression (western blot) in primary cultured neurons; format: cell-based, mice; conditions: mouse primary neuro-glia culture, 4 days treatment, β-actin normalized; FIG. 14C
# Protocol: as §1
# [5] = system: microglia cells (BV2); assay: NO assay (Griess reagent) in LPS-treated BV2 microglial cells; format: cell-based; conditions: donepezil HCl alone, antioxidant alone or combination, FIG. 8
# Protocol: (§2) Briefly, BV2 microglial cells were plated in 96-well plates at 2×10^5 cells/well in DMEM high glucose medium (Welgene, LM001-05) supplemented with 10% fetal bovine serum (FBS; YOUNG IN, US-FBS-500) and 1% penicillin-streptomycin (P-S; Gibco, 15070063).
# After incubation, NO levels were quantified from half of the cell media using a Griess reagent assay kit (Promega, G2930). Colorimetric changes in the media and Griess reagent mixture were measured using a Synergy HTX Multi-Mode reader (Biotek) at 540 nm. All data were analyzed using the GraphPad Prism 9 software. Statistical significance was assessed using a one-way ANOVA or two-way ANOVA followed by Dunnett's post-hoc analysis unless otherwise noted. All data are presented as the mean±SEM, and significance was set at P<0.05. […] (*P<0.05, **P<0.01, ***P<0.001, ****P<0.0001, one-way ANOVA).
# [6] = system: IL-6; assay: IL-6 ELISA in LPS-treated BV2 microglial cells; format: cell-based, mouse; conditions: BV2, 1 μg/ml LPS, 18 hours; FIG. 4
# Protocol: as §2
# [7] = system: ERK pathway; assay: pERK expression in brain (western blot), MCAO-reperfusion model; format: in vivo, Sprague-Dawley rats
# Protocol: (§3) At 21 days after 45-minutes-MCAO-reperfusion modeling, brains were collected to perform a western blot assay. Brains were homogenized in lysate buffer with protease inhibitor cocktail on ice. Each sample was centrifuged at 13,000 rpm and 4° C. for 30 minutes and the supernatant was used for further experiments. Protein concentration was measured using DC (Bio-rad, #5000112) protein assay. Samples were loaded using the SDS-PAGE system (Bio-rad, #1658004 and #1645052) and transferred onto nitrocellulose membranes (Bio-rad, #17001917 and #1704272). The membranes were blocked for 1 hour at room temperature with Tris-buffered saline-Tween20 (TBS-T) containing 5% skim milk and then incubated with pAKT antibody (Cell signaling, #4060), AKT primary antibody (Santacruz, SC-81434), EPO primary antibody (SCBT, SC-5290), ERK (CST, #9102), pERK (CST, #9101) and GAPDH (Bioworld, #MBOO1H) in 5% skim milk overnight at 4° C. Next day, the membranes were washed 3 times in TBS-T for 5 minutes, incubated with horseradish peroxidase-conjugated (HRP-conjugated) secondary antibody or fluorescence conjugated secondary antibody for 1-2 hours, and then washed 3 times in TBS-T for 5 minutes again. After final wash, the membranes were developed for chemiluminescence or fluorescence system. The signals of chemiluminescence or fluorescence were acquired and quantified by using ECL solution (Bio-rad, #1705062), iBright 1500 (Invitrogen, #CL1500), and Odyssey CLx (LI-COR, #CLX-2383) imaging system.
# [8] = system: PI3K-AKT pathway; assay: pAKT expression in brain (western blot), MCAO-reperfusion model; format: in vivo, Sprague-Dawley rats
# Protocol: as §3
# [9] = system: EPO; assay: EPO expression in brain (western blot), MCAO-reperfusion model; format: in vivo, Sprague-Dawley rats; conditions: 21 days after MCAO
# Protocol: as §3, with “Brains” for “At 21 days after 45-minutes-MCAO-reperfusion modeling, brains were collected to perform a western blot assay. Brains”, “Each sample was centrifuged at 13,000 rpm and 4° C. for 30 minutes and the supernatant was used for further experiments.” left out
# [10] = system: ReN VM-immortalized cells, human neural progenitor cell line; assay: HB9 motor neuron marker expression in neural progenitor cells (differentiation); format: cell-based; conditions: alone or combined, 3 days
# Protocol: ReN VM-immortalized cells, human neural progenitor cell line, were used (EMD Millipore, SCC008). These neural progenitor cells can differentiate into motor neurons and glial cells. The degree of differentiation of neural progenitor cells into motor neurons was determined by analysing the level of HB9, a specific motor neuron marker. ReN VM cells were cultured on laminin (Corning, 354232)-coated 75T Flask in the growth medium, which is DMEM/F12 (Welgene, #LM002-08) supplemented with 20 ng/ml basic fibroblast growth factor (bFGF; Gibco, 15750-060), 20 ng/ml epidermal growth factor (EGF; Sigma, E9644), serum-free B27 (Gibco, 17504-044), 10 KU heparin (Sigma, H3393), and 1% gentamicin (Gibco, 17504-044). Cells were plated in 96-well plates at 7000 cells/well in the growth media in a 37° C./5% CO2 incubator for 3 days. […] Immunostaining was performed against HB9, a specific motor neuronal marker, to assess the population of motor neurons. Briefly, drug-treated ReN VM cells were fixed in 10% formalin solution for 20 minutes and permeabilized in 0.1% TritonX-100. […] Fluorescence intensity levels were measured using an Odyssey® DLx Infrared Imaging System (LI-COR, CLS-2383). All data were analyzed using the GraphPad Prism 9 software. Statistical significance was assessed using a one-way ANOVA or two-way ANOVA followed by Dunnett's post-hoc analysis unless otherwise noted. […]
# [11] = system: neural progenitor cells; assay: Number of viable cells (cytotoxicity) in neural progenitor cells; conditions: with donepezil, NAC or their combination; FIG. 13B
# [12] = 1 mpk donepezil HCl or 120 mpk NAC used alone, FIG. 17
# [13] = brain, 21 days after MCAO, 1 mpk donepezil HCl, 120 mpk NAC, alone or combined
structure (smiles),measurement,setting,value
"COc1cc2c(cc1OC)C(=O)C(CC1CCN(Cc3ccccc3)CC1)C2 (stereo not shown) [Donepezil-HCl, donepezil]","ROS, mean value normalized to control (CTL 100%)",[1],76.52%
same,"PSD-95 expression, mean value normalized to untreated control (CTL 1.0)",[2],1.20
same,Rotarod score normalized to VEH (100%),[3]; day 3 after MCAO,93.92%
same,"Rotarod score (fall latency normalized to day 1), mean value",[3]; day 3 after MCAO,15.77
same,"Rotarod score (fall latency normalized to day 1), mean value",[3]; day 7 after MCAO,30.61
same,Rotarod score normalized to VEH (100%),[3]; day 14 after MCAO,81.08%
same,"Rotarod score (fall latency normalized to day 1), mean value",[3]; day 14 after MCAO,39.30
same,Rotarod score normalized to VEH (100%),[3]; day 21 after MCAO,77.68%
same,"Rotarod score (fall latency normalized to day 1), mean value",[3]; day 21 after MCAO,49.53
same,"pCREB expression, mean value normalized to untreated control (CTL 1.0)",[4],0.92
COc1ccc([C@H]2OC[C@H]3[C@@H]2CO[C@H]3c2ccc(O[C@@H]3O[C@H](CO)[C@@H](O)[C@H](O)[C@H]3O)c(OC)c2)cc1OC [Forsythin],"NO, mean value relative to LPS (100%)",[5],89.97%
"CC(=O)N[C@@H](CS)C(=O)O [NAC, N-acetylcysteine]","IL-6, mean value relative to LPS (100%)",[6],95.48%
same,"ROS, mean value normalized to control (CTL 100%)",[1],88.93%
same,"PSD-95 expression, mean value normalized to untreated control (CTL 1.0)",[2],1.43
same,activation of the ERK pathway,[7]; [12],did not activate
same,pERK expression normalized to VEH (100%),[7]; [13],189.77%
same,"pERK expression, mean value","[7]; brain, 21 days after MCAO, 1 mpk donepezil HCl, 120 mpk NAC, alone or combined, FIG. 17B",99.50
same,activation of the PI3K-AKT pathway,[8]; [12],did not activate
same,pAKT expression normalized to VEH (100%),[8]; [13],55.88%
same,"pAKT expression, mean value","[8]; brain, 21 days after MCAO, 1 mpk donepezil HCl, 120 mpk NAC, alone or combined, FIG. 17A",44.23
same,Rotarod score normalized to VEH (100%),[3]; day 3 after MCAO,139.30%
same,"Rotarod score (fall latency normalized to day 1), mean value",[3]; day 3 after MCAO,23.39
same,"Rotarod score (fall latency normalized to day 1), mean value",[3]; day 7 after MCAO,38.01
same,Rotarod score normalized to VEH (100%),[3]; day 14 after MCAO,83.86%
same,"Rotarod score (fall latency normalized to day 1), mean value",[3]; day 14 after MCAO,40.65
same,Rotarod score normalized to VEH (100%),[3]; day 21 after MCAO,44.96%
same,"Rotarod score (fall latency normalized to day 1), mean value",[3]; day 21 after MCAO,28.67
same,EPO expression normalized to VEH (100%),[9],151.66%
same,"EPO expression, mean value",[9]; FIG. 18,172.43
same,"HB9 expression level, mean value relative to CTL (100%)","[10]; donepezil 0.1 μM, NAC 12 μM, FIG. 9A",116.9%
same,"HB9 expression level, mean value relative to CTL (100%)","[10]; donepezil 1 μM, NAC 120 μM, FIG. 9B",125.36%
same,"pCREB expression, mean value normalized to untreated control (CTL 1.0)",[4],1.13
O=C(O)CCCCC1CCSS1 (stereo not shown) [Thioctic acid],"NO, mean value relative to LPS (100%)",[5],68.45%
CO[C@H]1C[C@@H]2CC[C@@H](C)[C@@](O)(O2)C(=O)C(=O)N2CCCC[C@H]2C(=O)O[C@H]([C@H](C)C[C@@H]2CC[C@@H](O)[C@H](OC)C2)CC(=O)[C@H](C)/C=C(\C)[C@@H](O)[C@@H](OC)C(=O)[C@H](C)C[C@H](C)/C=C/C=C/C=C/1C [rapamycin],cytotoxicity on addition of rapamycin,[11],did not induce cytotoxicity
